Results taken from US20060135568A1, “Methods of treating microbial infections in humans and animals” (priority 2002, published 2006).
≈ marks a conversion by molar mass, not a printed value. Entries after “also recorded” stand apart in the source; their conditions may differ. Read-outs that look alike come from different tables or passages of the source.

Legend:
[1] = system: ATP level in BCG cultures; type: cell-based, M. bovis BCG; details: for ATP[M] levels, single time-point and time-course experiments: all time-points tested
[2] = system: mycolic acid synthesis in BCG; type: cell-based, M. bovis BCG; details: BCG early log phase, 100 μg/ml, 10 minutes post exposure
[3] = system: atpF (Rv1306) and hsp (Rv0251c); type: cell-based, M. bovis BCG; details: BCG treated overnight
[4] = system: mycolic acid synthesis in BCG; details: previously reported; cited from earlier work
[5] = cited from earlier work
[6] = system: b-subunit and hsp homologs; assay: 2-dimensional protein profiles of OSA-treated M. smegmatis; type: cell-based
Experimental: Protein assays: mycobacteria and cultures. Either DMSO (diluent), OSA. (6.25 and 100 μg/ml), cerulenin (24 μg/ml) or isoniazid (1.0 μg/ml) were added to 20 ml control and treated cultures, respectively. Following additional incubation for 24 hours under the same conditions, 2 ml aliquots of cells were harvested by centrifugation (13,000× g for 30 seconds), the supernatant removed, and the process repeated once using 1×PBS. The cellular contents of each tube were divided into 2 to 3 Eppendorfs (roughly 3 to 5 OD units per tube), and 250 μl of a lysis solution containing 3M urea (Sigma), 0.5% Triton X-100 (Sigma), […] dithiothreitol (DTT) (Gibco BRL, Life Technologies, Gaithersburg, Md.) and […] Pharmalyte (Pharmacia Biotech, Piscataway, N.J.) was added. Subsequently, phenylmethylsulfonyl fluoride (PMSF) (Sigma) (100 μg/ml) and leupeptin (2 μg/ml) (Sigma) were also added. Mixtures containing cells and lysis solution were beadbeaten at maximum speed for 60 seconds in a Biospec Mini-8 beadbeater using 200-300 μm glass beads (Sigma). This process was repeated twice per sample with 30-second intervals on ice between agitations. […] Protein concentration was determined using a standardized colorimetric assay (Coomassie Plus, Pierce, Rockford, Ill.) and BSA standards (Pierce) in a Shimadzu UC-1201 spectrophotometer. Quantitated samples were aliquoted and frozen at −70° C. […]

[7] = system: M. smegmatis; details: concentrations up to 100 μg/ml; previously reported; cited from earlier work
[8] = system: M. tuberculosis H37Rv; assay: BACTEC radiometric growth procedure, activity in the presence of ethanol; type: cell-based, Mycobacterium tuberculosis (H37Rv); details: for potentiation of growth inhibition by ethanol: 0.05% ethanol, M. tuberculosis; for MIC: Mycobacterium tuberculosis, H37RV, M. tuberculosis H37Rv, BACTEC
[9] = system: BCG; assay: MIC in BCG; type: cell-based, M. bovis BCG; details: Mycobacterium tuberculosis variant bovis BCG
[10] = 5 minutes post-exposure, 16× MIC or stated inhibitor concentration

Compound: C(=NC1CCCCC1)=NC1CCCCC1 [DCCD, dicyclohexylcarbodiimide]
- effect on ATP level versus untreated BCG [1, 10]: statistically significant decrease
- decrease in ATP[M] level ([1]; BCG, 100 μg/ml, all timepoints (1, 3, 24 hours)): 95%
- ATP[M] levels, single time-point and time-course experiments ([1]; BCG): decreased significantly
- decrease in total mycolic acid levels compared to untreated controls [2]: 79%

Compound: CC[C@@H](CO)NCCN[C@@H](CC)CO [EMB, ethambutol]
- effect on ATP level versus untreated BCG [1, 10]: no appreciable difference

Compound: NNC(=O)c1ccncc1 [INH, isoniazid]
- effect on ATP level versus untreated BCG [1, 10]: no appreciable difference

Compound: CCCCCCCCS(=O)(=O)CC(N)=O [OSA, n-octanesulfonylacetamide]
- level of hsp expression by RT-PCR [3]: marked increase
- mycolic acid levels in BCG [4]: decreased
- limit of solubility [5]: 100 µg/mL
- effect on ATP level versus untreated BCG [1, 10]: significantly decreased
- reduction in ATP[M] versus untreated controls ([1]; BCG, 100 μg/ml, 24 hours): 85%
- decrease in ATP[M] level versus untreated controls ([1]; BCG, 100 μg/ml, one hour post exposure): 46%
- reduction in ATP[M] versus untreated controls ([1]; BCG, 100 μg/ml, three hours): 54%
- ATP[M] levels, single time-point and time-course experiments ([1]; BCG): decreased significantly
- overexpression of hsp and b-subunit homologs [6]: no proteins consistent with these molecular weights or pI's were overexpressed; also recorded: neither protein was overexpressed
- susceptibility of M. smegmatis [7]: intrinsically resistant
- potentiation of growth inhibition by ethanol [8]: potentiated
- MIC ([8]; with 0.05% ethanol): < 1.5 µg/mL
- MIC ([8]; without ethanol, read-out: MIC): 6.25 µg/mL
- decrease in total mycolic acid levels compared to untreated controls [2]: 43%
- MIC [9]: 6.25 µg/mL (≈ 26.6 µM)

Compound: CO[C@H]1/C=C/O[C@@]2(C)Oc3c(C)c(O)c4c(O)c(c(/C=N/N5CCN(C)CC5)c(O)c4c3C2=O)NC(=O)/C(C)=C\C=C\[C@H](C)[C@H](O)[C@@H](C)[C@@H](O)[C@@H](C)[C@H](OC(C)=O)[C@@H]1C [RIF, rifampin]
- effect on ATP level versus untreated BCG [1, 10]: no appreciable difference

Compound: [H]/N=C(/N)N[C@H]1[C@H](O)[C@@H](O)[C@H](O[C@@H]2O[C@@H](C)[C@](O)(C=O)[C@H]2O[C@@H]2O[C@@H](CO)[C@H](O)[C@@H](O)[C@@H]2NC)[C@@H](N/C(N)=N\[H])[C@@H]1O [STR, streptomycin]
- effect on ATP level versus untreated BCG [1, 10]: no appreciable difference
- potentiation of growth inhibition by ethanol [8]: No potentiation

Compound: O=C(CC(=O)C(F)(F)F)c1cccs1 [TTFA, thenoyltrifluoroaceton]
- effect on ATP level versus untreated BCG [1, 10]: only a moderate decrease
- decrease in total mycolic acid levels compared to untreated controls [2]: 46%

Compound: C/C=C/C/C=C/CCC(=O)[C@H]1O[C@H]1C(N)=O [cerulenin]
- effect on ATP level versus untreated BCG [1, 10]: No appreciable decrease

Compound: O=c1oc2ccccc2c(O)c1Cc1c(O)c2ccccc2oc1=O [dicumarol]
- effect on ATP level versus untreated BCG [1, 10]: No appreciable decrease

Compound: C=C(C)[C@H]1Cc2c(ccc3c2O[C@@H]2COc4cc(OC)c(OC)cc4[C@@H]2C3=O)O1 [rotenone]
- effect on ATP level versus untreated BCG [1]: No appreciable decrease
